Laboratory results from patent US5358947A, “Angiotensin II receptor blocking 2,3-substituted pyrazolo[1,5-a]-1,3,5-triazin-4(3H)-ones” (American Cyanamid Company, priority 1993, dated 1994).
“And” between values parts separate entries of the source, which are not always exact repeats. Equal entries are not always repeated.

Tested on: ANGIOTENSIN II (AII) VASOPRESSOR RESPONSE
Experiment: AII Challenge: angiotensin II (AII) vasopressor response in conscious rats
Assay type: in vivo
Design: Response After AII / Change / Average Change: unit not given here
Conditions: 10 mg/kg i.v.; for Change / Response After AII / Control Before AII: individual rat, listed as Ex. 12; for Control Before AII: in mmHg (unit assumed); for % Inhibition / Average Change: n = 2
Excerpt: By administering a compound of this invention to a rat, and then challenging with angiotensin II, a blockage of the vasopressor response is realized.
Conscious Male Okamoto-Aoki SHR, 16-20 weeks old, weighing approximately 330 g are purchased from Charles River Labs (Wilmington, Mass.). Conscious rats are restrained in a supine position with elastic tape. The area at the base of the tail is locally anesthetized by subcutaneous infiltration with 2% procaine. The ventral caudal artery and vein are isolated, and a cannula made of polyethylene (PE) 10-20 tubing (fused together by heat) is passed into the lower abdominal aorta and vena cava, respectively. The cannula is secured, heparinized (1,000 I.U./ml), sealed and the wound is closed. The animals are placed in plastic restraining cages in an upright position. The cannula is attached to s Statham P23Db pressure transducer, and pulsatile blood pressure is recorded to 10-15 minutes with a Gould Brush recorder. (Chan et al., (Drug Development Res., 18:75-94, 1989).
Angiotensin II (human sequence, Sigma Chem. Co., St. Louis, Mo.) of 0.05 and 0.1 ug/kg i.v. is injected into all rats (predosing response.). Then a test compound, vehicle or a known angiotensin II antagonist is administered i.v., i.p. or orally to each set of rats. The two doses of angiotensin II are given to each rat again at 30, 60, 90, 120, 180, 240 and 300 minutes post dosing the compound or vehicle. The vasopressor response of angiotensin II by a compound is calculated using the vasopressor response (increase in systolic blood pressure) of angiotensin II of each rat predosing the compound as 100%. A compound is considered active if at 30 mg/kg i.v. it antagonized at least 50% of the response.

[1] = AII 0.05 mcg/kg, 30 min post dose
[2] = AII 0.05 mcg/kg, 60 min post dose
[3] = AII 0.05 mcg/kg, 90 min post dose
[4] = AII 0.05 mcg/kg, 120 min post dose
[5] = AII 0.05 mcg/kg, 180 min post dose
[6] = AII 0.05 mcg/kg, 240 min post dose
[7] = AII 0.05 mcg/kg, 300 min post dose
[8] = AII 0.1 mcg/kg, 30 min post dose
[9] = AII 0.1 mcg/kg, 60 min post dose
[10] = AII 0.1 mcg/kg, 90 min post dose
[11] = AII 0.1 mcg/kg, 120 min post dose
[12] = AII 0.1 mcg/kg, 180 min post dose
[13] = AII 0.1 mcg/kg, 240 min post dose
[14] = AII 0.1 mcg/kg, 300 min post dose

For `CCCCc1nc2cc(-c3ccc(F)cc3)nn2c(=O)n1Cc1ccc(-c2ccccc2-c2nnn[nH]2)cc1` [Example 12, 2-Butyl-7-(4-fluorophenyl)-3-[[2'-(1H-tetrazol-5-yl)[1,1'-biphenyl]-4-yl]methyl]pyrazolo[1,5-a]-1,3,5-triazin-4(3H)-one], the Change [1] was 10 and 20, the “Response After AII” value [1] was 205 and 245 and the “Control Before AII” value [1] was 195 and 225. For the same compound, the “% Inhibition” value [1] was 73%, the “Average Change” value [1] was 15 and the Change [2] was 20 and 10. For the same compound, the “Response After AII” value [2] was 200 and 240, the “Control Before AII” value [2] was 180 and 230 and the “% Inhibition” value [2] was 7%. The “Average Change” value [2] was 15, the Change [3] was 20 and 25 and the “Response After AII” value [3] was 185 and 250. For the same compound, the “Control Before AII” value [3] was 165 and 225, the “% Inhibition” value [3] was 59% and the “Average Change” value [3] was 22.5. The Change [4] was 25 and 30, the “Response After AII” value [4] was 185 and 255 and the “Control Before AII” value [4] was 160 and 225. The “% Inhibition” value [4] was 50%, the “Average Change” value [4] was 27.5 and the Change [5] was 10 and 33. For the same compound, the “Response After AII” value [5] was 195 and 240, the “Control Before AII” value [5] was 185 and 207 and the “% Inhibition” value [5] was 61%. The “Average Change” value [5] was 21.5, the Change [6] was 10 and 35 and the “Response After AII” value [6] was 195 and 255. The “Control Before AII” value [6] was 185 and 220, the “% Inhibition” value [6] was 59% and the “Average Change” value [6] was 22.5. The Change [7] was 15 and 35, the “Response After AII” value [7] was 200 and 260 and the “Control Before AII” value [7] was 185 and 225. For the same compound, the “% Inhibition” value [7] was 55%, the “Average Change” value [7] was 25 and the Change [8] was 10 and 15. The “Response After AII” value [8] was 210 and 250, the “Control Before AII” value [8] was 200 and 235 and the “% Inhibition” value [8] was 76%. For the same compound, the “Average Change” value [8] was 12.5, the Change [9] was 15 and 30 and the “Response After AII” value [9] was 205 and 250. For the same compound, the “Control Before AII” value [9] was 190 and 220, the “% Inhibition” value [9] was 57% and the “Average Change” value [9] was 22.5. For the same compound, the Change [10] was 30 and 25, the “Response After AII” value [10] was 200 and 260 and the “Control Before AII” value [10] was 170 and 235. For the same compound, the “% Inhibition” value [10] was 48%, the “Average Change” value [10] was 27.5 and the Change [11] was 25 and 42. The “Response After AII” value [11] was 195 and 267, the “Control Before AII” value [11] was 170 and 225 and the “% Inhibition” value [11] was 36%. The “Average Change” value [11] was 33.5, the Change [12] was 15 and 40 and the “Response After AII” value [12] was 200 and 250. The “Control Before AII” value [12] was 185 and 210, the “% Inhibition” value [12] was 48% and the “Average Change” value [12] was 27.5. The Change [13] was 15 and 45, the “Response After AII” value [13] was 200 and 270 and the “Control Before AII” value [13] was 185 and 225. The “% Inhibition” value [13] was 43%, the “Average Change” value [13] was 30 and the Change [14] was 20 and 50. For the same compound, the “Response After AII” value [14] was 205 and 275, the “Control Before AII” value [14] was 185 and 225 and the “% Inhibition” value [14] was 33%. For the same compound, the “Average Change” value [14] was 35.
